Reference: patent US10646466B2, “Uses of gallocatechin” (TCI CO., LTD., priority 2017, dated 2020)

Key:
Type in all cases: cell-based
Conditions in all cases: 0.0625 μg/ml, 24 hours, control set as 1-fold
TPH1 gene = assay: qPCR expression level of TPH1 gene in SHSY5Y cells
Procedure: (§1) SHSYSY cells were seeded in a 6-well plate (1×10^5 cells/well) and then cultured for 24 hours. Thereafter, cells were divided into the control group and experimental group and were separately cultured in the following medium for 24 hours: • 1. Control group: DMEM medium; • 2. Experimental group: a medium the same as that of the control group, but additionally added with 0.0625 μg/ml of the compound of formula (I). Thereafter, cells of the above groups were harvested and subjected to an RNA extraction with an RNA Extract Kit. The RNA thus obtained was then transcribed into cDNA by using a Reverse Transcriptase. Thereafter, the cDNA was subjected to a quantitative polymerase chain reaction (qPCR) by using a Step One Plus system and a KAPA SYBR FAST qPCR kit to determine the expression levels of genes related to melatonin (including TPH1, DDC, AANAT and ASMTL) in the cells of each group. The above experimental steps were repeated three times, and then the results of the three experiments were averaged. Thereafter, the result of the control group was used as a basis (i.e., the gene expression level of the control group was set as 1-fold) to calculate the relative gene expression level of the experimental group.

DDC gene = assay: qPCR expression level of DDC gene in SHSY5Y cells
Procedure: as §1

AANAT gene = assay: qPCR expression level of AANAT gene in SHSY5Y cells
Procedure: as §1

ASMTL gene = assay: qPCR expression level of ASMTL gene in SHSY5Y cells
Procedure: as §1

Oc1cc(O)c2c(c1)O[C@H](c1cc(O)c(O)c(O)c1)[C@@H](O)C2 [compound of formula (I), gallocatechin]
significantly increased: relative expression level of TPH1 gene as compared to the control group (TPH1 gene) | relative expression level of DDC gene as compared to the control group (DDC gene) | relative expression level of AANAT gene as compared to the control group (AANAT gene) | relative expression level of ASMTL gene as compared to the control group (ASMTL gene)
